{"source": "patent US20250092353A1", "about": "“COMMENSAL FUNGUS AND USES THEREOF” (YEDA RESEARCH AND DEVELOPMENT CO. LTD., priority 2022, published 2025)", "key": {"[1]": {"test": "Fungal-mediated pathology in cortisone 21-acetate immunosuppressed colonized mice", "assay_type": "in vivo", "settings": "cortisone 21-acetate 225 mg/kg s.c. every other day", "description": "Stably fungal-colonized mice were 5×s.c injected with 225 mg kg-1 with cortisone 21-acetate, following the scheme of injection every other day as described previously (Solis and Filler, 2012). Mice were monitored for weight loss. Following sacrifice, organs and feces were collected for histological examination, flow cytometry and fungal cultivations). If the weight dropped […], mice were sacrificed according to IACUC protocol.\nMice were euthanized and intestines, kidneys and tongue were excised and fixed overnight in 4% paraformaldehyde at 4° C. Paraffin embedding and sectioning was performed by the institutional histology unit. For immunohistochemistry of gut samples, slides were deparaffinized by 2 washes of Xylene followed by 100%, 96%, 70% EtOH and three washes with PBS. Slides were incubated for 30 minutes in 1% hydrogen peroxide in PBS at room temperature in the dark. After washing three times in PBS, slides were boiled for 10 minutes in Citric acid buffer pH 6.0 (10 mM citric acid and 0.05% Tween-20 in DDW), then washed with PBS three times. […] For histopathology of typical tongue or kidney fungal lesions in the mouse model of immunosuppression, paraffin sections were stained with periodic acid-Schiff (PAS) or H&E and slides were captured using a Panoramic SCAN II (3DHISTECH) and analyzed using CaseViewer software (3DHISTECH)."}, "[2]": {"system": "C. albicans SC5314 (ENO1-GFP)", "test": "In vivo competition with C. albicans in germ-free animals", "set-up": "species or system mice", "settings": "oral mixture of the two fungi", "text": "FIGS. 3A-3M include fluorescent micrographs, graphs, and a scheme, showing K. weizmannii competition with C. albicans in colonized animals. (3A) A representative picture of a far-red fluorescent reporter Kazachstania strain (K. weizmannii ENO1-Mirf). (3B-C) Recoverable fecal K. weizmannii in colonized wild-type animals (without antibiotics) one and six months after single oral K. weizmannii ENO1-Mirf inoculation. (3D) Flow cytometric analysis of C. albicans SC5314 (ENO1-GFP), K. weizmannii (ENO1-Mirf), and mixed cultures used for oral inoculation (3E). […] Quantification (n=3-5 mice per group, 4 independent experiments) (see (3D). (3H) Schematic non-limiting outline of a co-housing experiment. (3I) Representative flow cytometric feces analysis of colonized mice 4 weeks after initial colonization (before cohousing) and 2 weeks after co-housing. (N=4 per group). (3J) Percentages of respective labelled fungi in feces of C. albicans, K. weizmannii colonized animals, before and after co-housing in Abx presence (except for day 48 and 58); antibiotics withdrawal on day 46 of cohousing, n=4 per group, representative of 2 independent experiments. (3K) Flow cytometric analysis of feces of germfree animals 1 week after oral inoculation of single fungi cultures or mixed C. albicans SC5314 (ENO1-GFP)/K. weizmannii (ENO1-Mirf) culture. […]"}, "[3]": {"system": "neutrophils, classical and non-classical monocytes", "test": "Flow cytometric analysis of myeloid blood cell compartment of colonized mice", "assay_type": "in vivo", "settings": "Abx-treated mice, 4 weeks colonized", "text": "FIGS. 4A-4F include graphs showing humoral and cellular immune responses to C. albicans and Kazachstania sp. (4A) Flow cytometric analysis of myeloid blood cell compartment of mice 4 weeks colonized with C. albicans or K. weizmannii. Neutrophils, classical and non-classical monocytes are defined as Ly6G+CD 115−, Ly6C+CD 115+, and […], respectively. N=8-21 mice, pooled from 3 independent experiments. Gating strategy, left, results, right. (4B) Flow cytometric analysis of humoral anti-fungal reactivity. Gating strategy for the determination of serum immunoglobulin binding to cultured C. albicans or K. weizmannii. (4C) Anti-C. albicans and K. weizmannii IgA and IgG serum reactivity of single-colonized animals, measured as shown in (4B). Note that most but not all animals harbor cross-reactive sera. (4D) Representative gating strategy of RORγt+ T cells (left); percentage of RORγt+ cells among TCRβ CD4+ T cells 5 weeks upon C. albicans or K. weizmannii colonization, n=3-5 mice per group, 3 independent experiments (right). […] EC damage was assessed using the LDH assay as described in (Allert et al., 2018). […]\nMethods adhered to published guidelines (Cossarizza et al., 2019). Flow cytometry samples were recorded on BD LSR Fortessa 4 lasers or Cytek Aurora followed by data analysis using the FlowJo software (Treestar)."}}}
{"substance": "Kazachstania weizmannii [K. weizmannii]", "values": [{"measurement": "weight loss and fungal spread", "setting": "[1]", "value": "neither weight loss nor evidence of fungal spread"}, {"measurement": "C. albicans colonization after co-inoculation", "setting": "[2]", "value": "prevented efficient C. albicans colonization"}, {"measurement": "abundance of blood granulocytes and monocytes", "setting": "[3]", "value": "no significantly altered abundance of granulocytes, classical or non-classical monocytes"}]}
